Data: ChEMBL document CHEMBL3885881, “DrugMatrix”

Organism: Rattus norvegicus
Assay: DrugMatrix - Regimen: Daily Repeat
Assay type: toxicity, organism-based, Sprague-Dawley
Set-up: regimen Daily Repeat, gender Male, age 6-8 weeks
Conditions: in vivo, po, route oral GAVAGE, vehicle 100 % WATER; for ABSOLUTE BASOPHIL / ABSOLUTE EOSINOPHIL / ABSOLUTE LYMPHOCYTE / ABSOLUTE MONOCYTE / ABSOLUTE SEGMENTED NEUTROPHIL / BASOPHIL / EOSINOPHIL / ERYTHROCYTE COUNT / HEMATOCRIT / HEMOGLOBIN / LEUKOCYTE COUNT / LYMPHOCYTE / MEAN CORPUSCULAR HEMOGLOBIN / MEAN CORPUSCULAR HEMOGLOBIN CONCENTRATION / MEAN CORPUSCULAR VOLUME / MONOCYTE / NEUTROPHIL / NUCLEATED RED BLOOD CELLS / PLATELET COUNT: tissue Blood; for ALANINE AMINOTRANSFERASE / ALBUMIN / ALKALINE PHOSPHATASE / ASPARTATE AMINOTRANSFERASE / BLOOD UREA NITROGEN / CARBON DIOXIDE / CHLORIDE / CHOLESTEROL / CREATINE PHOSPHOKINASE / CREATININE / GLUCOSE / LACTATE DEHYDROGENASE / LIPASE / PHOSPHORUS / POTASSIUM / SODIUM / TOTAL BILIRUBIN / TOTAL PROTEIN / URIC ACID: tissue Plasma
[1] = 100 mg/kg, 120 h, dose level Low, time 5 day
[2] = 852 mg/kg, 72 h, dose level High, time 3 day
[3] = 852 mg/kg, 120 h, dose level High, time 5 day

CC(C)(S)[C@@H](N)C(=O)O [PENICILLAMINE]
ABSOLUTE BASOPHIL [1]: 0 CELLS/uL | ABSOLUTE EOSINOPHIL [1]: 0 CELLS/uL | ABSOLUTE LYMPHOCYTE [1]: 6617.67 CELLS/uL | ABSOLUTE MONOCYTE [1]: 110.33 CELLS/uL | ABSOLUTE SEGMENTED NEUTROPHIL [1]: 338.67 CELLS/uL | BASOPHIL [1]: 0% | EOSINOPHIL [1]: 0% | ERYTHROCYTE COUNT [1]: 5.47 x10E6/uL | HEMATOCRIT [1]: 34.93% | HEMOGLOBIN [1]: 13.8 G/DL | LEUKOCYTE COUNT [1]: 7.07 x10E3/uL | LYMPHOCYTE [1]: 93.33% | MEAN CORPUSCULAR HEMOGLOBIN [1]: 25.27 pg | MEAN CORPUSCULAR HEMOGLOBIN CONCENTRATION [1]: 39.57 G/DL | MEAN CORPUSCULAR VOLUME [1]: 63.93 fL | MONOCYTE [1]: 1.67% | NEUTROPHIL [1]: 5% | NUCLEATED RED BLOOD CELLS [1]: 0 /100WBC | PLATELET COUNT [1]: 1075.33 x10E3/uL | ALANINE AMINOTRANSFERASE [1]: 51.33 u/L | ALBUMIN [1]: 4.07 G/DL | ALKALINE PHOSPHATASE [1]: 310.33 u/L | ASPARTATE AMINOTRANSFERASE [1]: 74.33 u/L | BLOOD UREA NITROGEN [1]: 13.67 mg/dL | CARBON DIOXIDE [1]: 34 mmol/L | CHLORIDE [1]: 99.67 MEQ/L | CHOLESTEROL [1]: 68.67 mg/dL | CREATINE PHOSPHOKINASE [1]: 197.67 u/L | CREATININE [1]: 0.13 mg/dL | GLUCOSE [1]: 152.67 mg/dL | LACTATE DEHYDROGENASE [1]: 129 u/L | LIPASE [1]: 9.67 u/L | PHOSPHORUS [1]: 10.77 mg/dL | POTASSIUM [1]: 6.13 MEQ/L | SODIUM [1]: 144.33 MEQ/L | TOTAL BILIRUBIN [1]: 0.17 mg/dL | TOTAL PROTEIN [1]: 5.83 G/DL | URIC ACID [1]: 1.17 mg/dL | ABSOLUTE BASOPHIL [2]: 0 CELLS/uL | ABSOLUTE EOSINOPHIL [2]: 0 CELLS/uL | ABSOLUTE LYMPHOCYTE [2]: 6326 CELLS/uL | ABSOLUTE MONOCYTE [2]: 89.33 CELLS/uL | ABSOLUTE SEGMENTED NEUTROPHIL [2]: 351.33 CELLS/uL | BASOPHIL [2]: 0% | EOSINOPHIL [2]: 0% | ERYTHROCYTE COUNT [2]: 5.64 x10E6/uL | HEMATOCRIT [2]: 34.8% | HEMOGLOBIN [2]: 13.1 G/DL | LEUKOCYTE COUNT [2]: 6.77 x10E3/uL | LYMPHOCYTE [2]: 93.67% | MEAN CORPUSCULAR HEMOGLOBIN [2]: 23.23 pg | MEAN CORPUSCULAR HEMOGLOBIN CONCENTRATION [2]: 37.67 G/DL | MEAN CORPUSCULAR VOLUME [2]: 61.73 fL | MONOCYTE [2]: 1.33% | NEUTROPHIL [2]: 5% | NUCLEATED RED BLOOD CELLS [2]: 0 /100WBC | PLATELET COUNT [2]: 1143.33 x10E3/uL | ALANINE AMINOTRANSFERASE [2]: 54.33 u/L | ALBUMIN [2]: 4.2 G/DL | ALKALINE PHOSPHATASE [2]: 349 u/L | ASPARTATE AMINOTRANSFERASE [2]: 71.33 u/L | BLOOD UREA NITROGEN [2]: 14 mg/dL | CARBON DIOXIDE [2]: 30.33 mmol/L | CHLORIDE [2]: 102.67 MEQ/L | CHOLESTEROL [2]: 88.33 mg/dL | CREATINE PHOSPHOKINASE [2]: 242 u/L | CREATININE [2]: 0.12 mg/dL | GLUCOSE [2]: 145.67 mg/dL | LACTATE DEHYDROGENASE [2]: 117.67 u/L | LIPASE [2]: 10 u/L | PHOSPHORUS [2]: 9.27 mg/dL | POTASSIUM [2]: 5.88 MEQ/L | SODIUM [2]: 147.53 MEQ/L | TOTAL BILIRUBIN [2]: 0.17 mg/dL | TOTAL PROTEIN [2]: 6.2 G/DL | URIC ACID [2]: 0.87 mg/dL | ABSOLUTE BASOPHIL [3]: 0 CELLS/uL | ABSOLUTE EOSINOPHIL [3]: 0 CELLS/uL | ABSOLUTE LYMPHOCYTE [3]: 6605.67 CELLS/uL | ABSOLUTE MONOCYTE [3]: 23.67 CELLS/uL | ABSOLUTE SEGMENTED NEUTROPHIL [3]: 604 CELLS/uL | BASOPHIL [3]: 0% | EOSINOPHIL [3]: 0% | ERYTHROCYTE COUNT [3]: 5.48 x10E6/uL | HEMATOCRIT [3]: 33.73% | HEMOGLOBIN [3]: 13.27 G/DL | LEUKOCYTE COUNT [3]: 7.23 x10E3/uL | LYMPHOCYTE [3]: 91.33% | MEAN CORPUSCULAR HEMOGLOBIN [3]: 24.23 pg | MEAN CORPUSCULAR HEMOGLOBIN CONCENTRATION [3]: 39.33 G/DL | MEAN CORPUSCULAR VOLUME [3]: 61.63 fL | MONOCYTE [3]: 0.33% | NEUTROPHIL [3]: 8.33% | NUCLEATED RED BLOOD CELLS [3]: 0 /100WBC | PLATELET COUNT [3]: 1213.67 x10E3/uL | ALANINE AMINOTRANSFERASE [3]: 35 u/L | ALBUMIN [3]: 4.23 G/DL | ALKALINE PHOSPHATASE [3]: 283.33 u/L | ASPARTATE AMINOTRANSFERASE [3]: 59.33 u/L | BLOOD UREA NITROGEN [3]: 13.33 mg/dL | CARBON DIOXIDE [3]: 33.33 mmol/L | CHLORIDE [3]: 99.67 MEQ/L | CHOLESTEROL [3]: 61.33 mg/dL | CREATINE PHOSPHOKINASE [3]: 202.33 u/L | CREATININE [3]: 0.12 mg/dL | GLUCOSE [3]: 131.67 mg/dL | LACTATE DEHYDROGENASE [3]: 133 u/L | LIPASE [3]: 9.67 u/L | PHOSPHORUS [3]: 10.7 mg/dL | POTASSIUM [3]: 6.12 MEQ/L | SODIUM [3]: 144.2 MEQ/L | TOTAL BILIRUBIN [3]: 0.2 mg/dL | TOTAL PROTEIN [3]: 6.07 G/DL | URIC ACID [3]: 1.23 mg/dL
